Data published in patent publication US20240124434A1, “ATF6 INHIBITORS AND USES THEREOF” (Altos Labs, Inc., priority 2018, published 2024).
Where two headings read alike, the source gives them in different places.

System: ATF6
Assay: ERSE ATF6-luciferase reporter assay (thapsigargin-induced ER stress)
Format: cell-based, human
Settings: for inhibition at 1 µM: 1 μM test compound, 8 hr, read-out: Inh. ATF6-Luc @ 1 μM [%]
Method: Human bone osteosarcoma (U2-OS) cells were obtained from the American Type Culture Collection (ATCC HTB-96, ATCC Manassas, VA) and were cultured with growing medium containing Dulbecco's Modified Eagle's Medium (DMEM) (Cat. No.:SH30023.02, HyClone) supplemented with fetal bovine serum (FBS) 10% (Cat. No.: 16000044, Gibco) and 1% penicillin-streptomycin antibiotic cocktail (Cat. No.: SV30010, Hyclone).
Cignal Lenti ATF6 luc reporter (Qiagen #CLS-6031L) was used to produce a stable cell line in U2-OS cells. […] The number of response elements as well as the intervening sequence between response elements has been experimentally optimized to maximize the signal to noise ratio.
Compounds were prepared as 10 mM stock solutions and stored at −80° C.
U2-OS ATF6 luc reporter cells were thawed 3-4 days and split once prior to assays. […] At the day of experiment, cells were pre-treated for 30 min with 50 μL growing medium containing either vehicle (dimethyl sulfoxide (DMSO)) (Cat. No.: D2650, Sigma-Aldrich) or 1 μM test compound. After the pre-incubation time, 50 μL of a solution containing 0.2 μM thapsigargin (Tg)(an ER stress inducer) was added to respective wells. This Tg solution also contained vehicle or test compounds at 1 μM. The final concentration of DMSO in each well was kept at 0.3%. Plates were incubated for 8 hr in humidified chambers.
Finally, after 8 hr, plates were cooled to room temperature for 10 min prior to luciferase assays. Luciferase reactions were performed using Luciferase Assay System (Cat. No.: E4550, Promega). Briefly, each well was washed with 100 μl of PBS1X and then 20 μl of lysis reagent were added into each well. Plates were shaken for 10 min, then 50 μl of Luciferase Assay Reagent were added to each well and luminescence was read with an integration time of 1 s and a gain of 110 in a Synergy 4 Microplate reader.
For the assessment of the half-maximal inhibitory concentration (IC50) for selected compounds, dose-response assays were performed. Compounds were serially diluted using DMSO starting at 30 μM until 1 nM. The assays were run as described above.

[1] = Homo sapiens, U2OS, 8 h, thapsigargin-induced ER stress, U2-OS ATF6 luc reporter cells
[2] = Homo sapiens, U2OS, dose-response 30 μM to 1 nM, thapsigargin-induced ER stress, U2-OS ATF6 luc reporter cells, read-out: IC50 ATF6-Luc reporter
[3] = Homo sapiens, U2OS, thapsigargin-induced ER stress, U2-OS ATF6 luc reporter cells

IC50 [2] | Structure (SMILES) | inhibition at 1 µM [1] | IC50 | Inh. ATF6-Luc @ 1 μM [%] (8 h, 1 µM) | inhibition at 1 µM [3]
> 10 µM | O=C(Nc1cn(Cc2ccc(C(F)(F)F)cc2C(F)(F)F)cn1)c1cc(-c2ccco2)on1 [Compound 17, N-(1-(2,4-bis(trifluoromethyl)benzyl)-1H-imidazol-4-yl)-5-(furan-2-yl)isoxazole-3-carboxamide] | < 25% | – | – | –
> 10 µM | COc1ccccc1-c1cc(C(=O)Nc2cnn([C@H](C)c3ccc(C(F)(F)F)cc3C(F)(F)F)c2)no1 [Compound 88, (R)N-(1-(1-(2,4-bis(trifluoromethyl)phenyl)ethyl)-1H-pyrazol-4-yl)-5-(2-methoxyphenyl)isoxazole-3-carboxamide] | < 25% | – | – | –
> 10 µM | C[C@@H](c1ccc(F)cc1C(F)(F)F)n1cc(NC(=O)c2cc(-c3ccccn3)on2)cn1 [Compound 111, (S)—N-(1-(1-(4-fluoro-2-(trifluoromethyl)phenyl)ethyl)-1H-pyrazol-4-yl)-5-(pyridin-2-yl)isoxazole-3-carboxamide] | < 25% | – | – | –
> 10 µM | COc1ccccc1-c1cc(C(=O)Nc2cnn([C@@H](C)c3ccc(C(F)(F)F)cc3C(F)(F)F)c2)no1 [Compound 89, (S)N-(1-(1-(2,4-bis(trifluoromethyl)phenyl)ethyl)-1H-pyrazol-4-yl)-5-(2-methoxyphenyl)isoxazole-3-carboxamide] | < 25% | – | – | –
> 10 µM | N#Cc1ccc(Cn2cc(NC(=O)c3cc(-c4ccco4)on3)cn2)cc1C(F)(F)F [Compound 26, N-(1-(4-cyano-3-(trifluoromethyl)benzyl)-1H-pyrazol-4-yl)-5-(furan-2-yl)isoxazole-3-carboxamide] | < 25% | – | – | –
> 10 µM | O=C(Nc1cnn(Cc2c(Cl)cccc2Cl)c1)c1nnc(-c2ccco2)s1 [Compound 148, N-(1-(2,6-dichlorobenzyl)-1H-pyrazol-4-yl)-5-(furan-2-yl)-1,3,4-thiadiazole-2-carboxamide] | < 25% | – | – | –
> 10 µM | Cc1c(NC(=O)c2cc(-c3ccccn3)on2)cnn1[C@@H](C)c1ccc(C(F)(F)F)cc1C(F)(F)F [Compound 98, (S)—N-(1-(1-(2,4-bis(trifluoromethyl)phenyl)ethyl)-5-methyl-1H-pyrazol-4-yl)-5-(pyridin-2-yl)isoxazole-3-carboxamide] | < 25% | – | – | –
> 10 µM | O=C(Nc1cnn(Cc2ccc(C(F)(F)F)cc2C(F)(F)F)c1)c1cncc(-c2ccc(F)cc2)c1 [Compound 20, N-(1-(2,4-bis(trifluoromethyl)benzyl)-1H-pyrazol-4-yl)-5-(4 fluorophenyl)nicotinamide] | < 25% | – | – | –
> 10 µM | C[C@H](c1ccc(C(F)(F)F)cc1C(F)(F)F)n1cc(NC(=O)c2cnc(-c3ccccn3)o2)cn1 [Compound 127, (R)N-(1-(1-(2,4-bis(trifluoromethyl)phenyl)ethyl)-1H-pyrazol-4-yl)-2-(pyridin-2-yl)oxazole-5-carboxamide] | < 25% | – | – | –
> 10 µM | O=C(Nc1cnn(Cc2c(Cl)cccc2Cl)c1)c1nnc(-c2ccccn2)s1 [Compound 145, N-(1-(2,6-dichlorobenzyl)-1H-pyrazol-4-yl)-5-(pyridin-2-yl)-1,3,4-thiadiazole-2-carboxamide] | < 25% | – | – | –
> 10 µM | Cc1cccc(-c2cc(C(=O)Nc3cnn([C@H](C)c4ccc(C(F)(F)F)cc4C(F)(F)F)c3)no2)n1 [Compound 116, (R)—N-(1-(1-(2,4-bis(trifluoromethyl)phenyl)ethyl)-1H-pyrazol-4-yl)-5-(6-methylpyridin-2-yl)isoxazole-3-carboxamide] | 25 to 50% | – | – | –
> 10 µM | O=C(Nc1cnn(C2CCc3ccccc32)c1)c1nnc(-c2ccco2)s1 (stereo not shown) [Compound 144, N-(1-(2,3-dihydro-1H-inden-1-yl)-1H-pyrazol-4-yl)-5-(furan-2-yl)-1,3,4-thiadiazole-2-carboxamide] | < 25% | – | – | –
> 10 µM | Cc1nn(Cc2ccc(C(F)(F)F)cc2C(F)(F)F)cc1NC(=O)c1cc(-c2ccccn2)on1 [Compound 29, N-(1-(2,4-bis(trifluoromethyl)benzyl)-3-methyl-1H-pyrazol-4-yl)-5-(pyridin-2-yl)isoxazole-3-carboxamide] | < 25% | – | – | –
– | CC(c1ccc(C(F)(F)F)cc1C(F)(F)F)n1cc(NC(=O)c2cc(-c3ccccn3)on2)cn1 (single isomer, unassigned) [“Enantiomer B” of Example S5, N-(1-(1-(2,4-bis(trifluoromethyl)phenyl)ethyl)-1H-pyrazol-4-yl)-5-(pyridin-2-yl)isoxazole-3-carboxamide] | – | > 10 µM | + (+ refers to <25% inhibition at 1 μM) | –
> 10 µM | Cc1c(NC(=O)/C=C/c2ccco2)cnn1Cc1ccc(C(F)(F)F)cc1C(F)(F)F [Compound 95, (E)—N-(1-(2,4-bis(trifluoromethyl)benzyl)-5-methyl-1H-pyrazol-4-yl)-3-(furan-2-yl)acrylamide] | < 25% | – | – | –
> 10 µM | O=C(Nc1cnn(Cc2ccc(C(F)(F)F)cc2C(F)(F)F)c1)c1cncc(-c2ccccc2)c1 [Compound 21, N-(1-(2,4-bis(trifluoromethyl)benzyl)-1H-pyrazol-4-yl)-5-phenylnicotinamide] | < 25% | – | – | –
> 10 µM | Cc1nn(-c2ccc(C(F)(F)F)cc2C(F)(F)F)cc1NC(=O)c1cc(-c2ccccn2)on1 [Compound 90, N-(1-(2,4-bis(trifluoromethyl)phenyl)-3-methyl-1H-pyrazol-4-yl)-5-(pyridin-2-yl)isoxazole-3-carboxamide] | < 25% | – | – | –
> 10 µM | C[C@@H](c1ccc(C(F)(F)F)cc1C(F)(F)F)n1cc(NC(=O)c2nnc(-c3ccncn3)s2)cn1 [Compound 157, (S)—N-(1-(1-(2,4-bis(trifluoromethyl)phenyl)ethyl)-1H-pyrazol-4-yl)-5-(pyrimidin-4-yl)-1,3,4-thiadiazole-2-carboxamide] | < 25% | – | – | –
> 10 µM | C[C@@H](c1ccc(C(F)(F)F)cc1C(F)(F)F)n1cc(NC(=O)c2ccccn2)cn1 [Compound 139, (S)—N-(1-(1-(2,4-bis(trifluoromethyl)phenyl)ethyl)-1H-pyrazol-4-yl)picolinamide] | < 25% | – | – | –
1 to 10 µM | O=C(Nc1cnn(Cc2ccc(C(F)(F)F)cc2C(F)(F)F)c1)c1cnc(-c2ccccn2)s1 [Compound 118, N-(1-(2,4-bis(trifluoromethyl)benzyl)-1H-pyrazol-4-yl)-2-(pyridin-2-yl)thiazole-5-carboxamide] | < 25% | – | – | –
> 10 µM | O=C(Nc1cnn(Cc2ccc(C(F)(F)F)cc2C(F)(F)F)c1)c1ccon1 [Compound 23, N-(1-(2,4-bis(trifluoromethyl)benzyl)-1H-pyrazol-4-yl)isoxazole-3-carboxamide] | < 25% | – | – | –
> 10 µM | CC(c1ccc(C(F)(F)F)cc1C(F)(F)F)n1cc(NC(=O)c2cc(-c3ccccn3)nn2C)cn1 (stereo not shown) [Compound 112, N-(1-(1-(2,4-bis(trifluoromethyl)phenyl)ethyl)-1H-pyrazol-4-yl)-1-methyl-3-(pyridin-2-yl)-1H-pyrazole-5-carboxamide] | 25 to 50% | – | – | –
> 10 µM | C[C@@H](c1ccc(C(F)(F)F)cc1C(F)(F)F)n1cc(NC(=O)c2cc(-c3ncccc3Cl)on2)cn1 [Compound 35, (S)-N-(1-(1-(2,4-bis(trifluoromethyl)phenyl)ethyl)-1H-pyrazol-4-yl)-5-(3-chloropyridin-2-yl)isoxazole-3-carboxamide] | < 25% | – | – | –
> 10 µM | CC(C)(C)c1cc(C(=O)Nc2cnn(Cc3ccc(C(F)(F)F)cc3C(F)(F)F)c2)no1 [Compound 13, N-{1-[2,4-bis(trifluoromethyl)benzyl]-1H-pyrazol-4-yl}-5-tert-butyl-1,2-oxazole-3-carboxamide] | < 25% | – | – | –

Structure (SMILES) | IC50 [2] | inhibition at 1 µM [1] | IC50 | Inh. ATF6-Luc @ 1 μM [%] (8 h, 1 µM) | inhibition at 1 µM [3]
O=C(/C=C/c1ccco1)Nc1cnn(Cc2ccc(C(F)(F)F)cc2C(F)(F)F)c1 [Compound 84, (E)—N-(1-(2,4-bis(trifluoromethyl)benzyl)-1H-pyrazol-4-yl)-3-(furan-2-yl)acrylamide] | > 10 µM | – | – | – | < 25%
CC(c1ccc(C(F)(F)F)cc1C(F)(F)F)n1cc(NC(=O)c2ccc(-c3ccccn3)cn2)cn1 (stereo not shown) [Compound 82, N-(1-(1-(2,4-bis(trifluoromethyl)phenyl)ethyl)-1H-pyrazol-4-yl)-[2,3′-bipyridine]-6′-carboxamide] | > 10 µM | – | – | – | < 25%
